Assay results as given in ChEMBL document CHEMBL1142078, “Detection of a new SHV-type extended-spectrum beta-lactamase, SHV-31, in a Klebsiella pneumoniae strain causing a large nosocomial outbreak in The Netherlands” (2007).
In brackets after ≈: the same amount, converted by molar mass.

How the values were obtained:
Type in all cases: functional
[1] = tested on: Escherichia coli; assay: Antimicrobial activity against Escherichia coli XL10/pSHV-31
[2] = tested on: Klebsiella pneumoniae; assay: Antimicrobial activity against Klebsiella pneumoniae KPN15-NL
[3] = tested on: Escherichia coli; assay: Antimicrobial activity against Escherichia coli XL10/vector

| Structure (SMILES) | MIC [1] [µg/mL] | MIC [2] [µg/mL] | MIC [3] [µg/mL] |
| --- | --- | --- | --- |
| CCN1CCN(C(=O)N[C@@H](C(=O)N[C@@H]2C(=O)N3[C@@H]2SC(C)(C)[C@@H]3C(=O)O)c2ccccc2)C(=O)C1=O [PIPERACILLIN] | 64 (≈ 124 µM) | > 128 | 1 (≈ 1.93 µM) |
| CO/N=C(\C(=O)N[C@@H]1C(=O)N2C(C(=O)O)=C(COC(C)=O)CS[C@H]12)c1csc(N)n1 [CEFOTAXIME] | 4 (≈ 8.78 µM) | 8 (≈ 17.6 µM) | ≤ 0.06 |
| CC1(C)S[C@@H]2[C@H](NC(=O)[C@H](N)c3ccc(O)cc3)C(=O)N2[C@H]1C(=O)O [AMOXICILLIN] | > 128 | > 128 | 16 (≈ 43.8 µM) |
| CC1(C)S[C@@H]2[C@H](NC(=O)[C@H](N)c3ccccc3)C(=O)N2[C@H]1C(=O)O [AMPICILLIN] | > 128 | > 128 | – |
| CO[C@@]1(NC(=O)Cc2cccs2)C(=O)N2C(C(=O)O)=C(COC(N)=O)CS[C@@H]21 [CEFOXITIN] | 1 (≈ 2.34 µM) | 16 (≈ 37.4 µM) | 1 (≈ 2.34 µM) |
| C[C@@H](O)[C@H]1C(=O)N2C(C(=O)O)=C(S[C@@H]3CN[C@H](C(=O)Nc4cccc(C(=O)O)c4)C3)[C@H](C)[C@H]12 [ERTAPENEM] | ≤ 0.06 | ≤ 0.06 | – |
| C[C@@H](O)[C@H]1C(=O)N2C(C(=O)O)=C(SCCNC=N)C[C@H]12 [IMIPENEM ANHYDROUS] | ≤ 0.06 | ≤ 0.06 | – |
| CC(C)(O/N=C(\C(=O)N[C@@H]1C(=O)N2C(C(=O)[O-])=C(C[n+]3ccccc3)CS[C@H]12)c1csc(N)n1)C(=O)O [CEFTAZIDIME] | 32 (≈ 58.5 µM) | 128 (≈ 234 µM) | 0.12 (≈ 0.22 µM) |
| C[C@H]1[C@H](NC(=O)/C(=N\OC(C)(C)C(=O)O)c2csc(N)n2)C(=O)N1S(=O)(=O)O [AZTREONAM] | > 128 | > 128 | 0.12 (≈ 0.276 µM) |
| CO/N=C(\C(=O)N[C@@H]1C(=O)N2C(C(=O)[O-])=C(C[N+]3(C)CCCC3)CS[C@H]12)c1csc(N)n1 [CEFEPIME] | 0.5 (≈ 1.04 µM) | 1 (≈ 2.08 µM) | ≤ 0.06 |
